Measurements as given in PMC3403540, “Active Hydrophilic Components of the Medicinal Herb Salvia miltiorrhiza (Danshen) Potently Inhibit Organic Anion Transporters 1 (Slc22a6) and 3 (Slc22a8)” (Evidence-based Complementary and Alternative Medicine : eCAM, 2012).
Counter-ions that a name gives are not always drawn. Like-named read-outs stand apart in the source and are kept apart here.

Key:
mOat3 [1] = target: T1, mOat3 (Mus musculus, UniProt O88909); assay: Inhibition of mOat3-mediated [3H]ES uptake in CHO-mOat3 cells (cell accumulation assay); type: cell-based, murine; conditions: for inhibition at 1000 µM: read-out: inhibition of mOat3-mediated ES uptake
T1 construct: expressed in transfected cells; host or cells: CHO (Chinese hamster ovary), stably transfected (CHO-mOat3)
T1 sequence (O88909 1-537): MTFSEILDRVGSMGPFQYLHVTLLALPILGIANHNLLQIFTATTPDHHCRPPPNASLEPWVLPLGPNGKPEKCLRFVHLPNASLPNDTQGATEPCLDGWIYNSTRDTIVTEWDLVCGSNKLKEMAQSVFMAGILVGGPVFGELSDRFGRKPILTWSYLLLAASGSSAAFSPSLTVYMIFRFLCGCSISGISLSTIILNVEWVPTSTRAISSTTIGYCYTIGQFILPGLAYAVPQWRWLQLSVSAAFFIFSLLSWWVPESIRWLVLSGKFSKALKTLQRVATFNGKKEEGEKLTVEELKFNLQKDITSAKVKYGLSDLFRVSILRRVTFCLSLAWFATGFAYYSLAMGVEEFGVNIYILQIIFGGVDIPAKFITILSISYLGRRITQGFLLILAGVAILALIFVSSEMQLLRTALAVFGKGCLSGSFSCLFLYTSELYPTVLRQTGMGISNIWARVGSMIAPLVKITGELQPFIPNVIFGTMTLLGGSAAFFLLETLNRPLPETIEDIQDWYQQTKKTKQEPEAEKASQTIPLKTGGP
Experimental: (§1) Derivation of the stably transfected Chinese hamster ovary (CHO) cell lines expressing mOat1 (CHO-mOat1), mOat3 (CHO-mOat3), and the empty vector (FRT) transfected control cell line (CHO-FRT) was described previously.
(§2) Cell transport assay procedures were adapted from those previously published. In brief, 2 × 10^5 cells/well were seeded in 24-well tissue culture plates and grown in the absence of antibiotics for 48 hr. On the day of the experiment, cells were equilibrated with transport buffer for 10 min (500 μL of Hanks' balanced salt solution containing 10 mM HEPES, pH 7.4). […] After incubation, cells were immediately rinsed three times with ice-cold transport buffer, lysed, and analyzed via liquid scintillation counting. Uptake values were normalized to corresponding total protein content in cell lysates as determined by the Bradford method. Substrate accumulation is reported as picomoles of substrate per milligram protein. […] Kinetic calculations were performed using GraphPad Prism Software version 5.0 (GraphPad Software Inc., San Diego, CA, USA). Michaelis constant (K m) values were calculated by nonlinear regression using the Michaelis-Menten model. Mode of inhibition was identified by using mixed model inhibition analysis as follows: (1) Vmax Apparent =Vmax/(1+[I]/(α×Ki)),Km Apparent=Km1+[I]/Ki/(1+[I]/(α×Ki)),Y=Vmax Apparent×x/Km Apparent+x, where V max, K i, and I represent the maximum transport velocity without inhibitor, the inhibition constant generated from the data set under analysis, and the concentration of inhibitor, respectively. In this study, three curves were constructed (no inhibitor, plus two selected inhibitor concentrations) with uptake of substrate plotted as a function of its concentration for each condition. […] The parameter, α, can then be used to determine the mode of inhibition. When α is very large (α > 1), it indicates competitive inhibition. Otherwise, it indicates noncompetitive inhibition (α = 1) or uncompetitive inhibition (0 < α < 1). To estimate K i values, IC50 values were calculated using nonlinear regression and inserted into the Cheng-Prusoff equation: K i = IC50/(1 + [Substrate]/K m). Results were confirmed by repeating all experiments at least three times with triplicate wells for each data point in every experiment.
Figure 2 Inhibition profile of mOat1 and mOat3. […] (5 μM) by LSA, PCA, RMA, SAA, SAB, TSL, and probenecid (1000 μM) was measured in the CHO-mOat1 cells (10 min). […] (b) Inhibition of mOat3-mediated uptake of [^3H]ES (1 μM) by LSA, PCA, RMA, SAA, SAB, TSL, and probenecid (1000 μM) was measured in the CHO-mOat3 cells (10 min). […] Values are mean ± S.D. of triplicate values. ***denotes P < 0.001 as determined by one-way ANOVA followed by Dunnett's t-test.
Figure 5 K i determination for LSA, RMA, and SAA in the CHO-mOat3 cell line. One minute uptake of [^3H]ES (1 μM) in CHO-mOat3 cells was measured in the presence of increasing concentrations (10^−7 to 4 × 10^−4 M) of LSA, RMA, and SAA. Data were corrected for nonspecific background measured in the CHO-FRT cells prior to kinetic analysis. K i values were determined with non-linear regression and the “one-site competition” model using GraphPad Prism software. Graphs shown are from representative experiments with values plotted as mean ± S.D. (n = 3).

[2] = rats; cited from earlier work
mOat1 [3] = target: T2, mOat1 (Mus musculus, UniProt Q8VC69); assay: Inhibition of mOat1-mediated [3H]PAH uptake in CHO-mOat1 cells (cell accumulation assay); type: cell-based, murine; conditions: read-out: inhibition of mOat1-mediated PAH uptake
T2 construct: expressed in transfected cells; host or cells: CHO (Chinese hamster ovary), stably transfected (CHO-mOat1)
T2 sequence (Q8VC69 1-545): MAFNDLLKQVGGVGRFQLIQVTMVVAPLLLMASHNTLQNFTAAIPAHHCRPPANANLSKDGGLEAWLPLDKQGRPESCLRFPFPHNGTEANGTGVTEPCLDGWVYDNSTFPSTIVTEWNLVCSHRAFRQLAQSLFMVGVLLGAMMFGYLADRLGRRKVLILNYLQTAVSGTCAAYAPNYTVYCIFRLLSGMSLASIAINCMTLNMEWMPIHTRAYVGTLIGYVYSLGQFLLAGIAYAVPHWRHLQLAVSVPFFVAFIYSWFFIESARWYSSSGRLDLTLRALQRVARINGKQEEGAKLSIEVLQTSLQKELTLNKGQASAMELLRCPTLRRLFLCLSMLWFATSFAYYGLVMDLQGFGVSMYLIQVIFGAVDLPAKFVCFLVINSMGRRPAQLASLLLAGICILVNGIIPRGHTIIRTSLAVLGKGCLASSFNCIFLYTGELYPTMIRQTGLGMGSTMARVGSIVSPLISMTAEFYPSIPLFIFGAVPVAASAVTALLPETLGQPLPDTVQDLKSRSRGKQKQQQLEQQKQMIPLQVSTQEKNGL
Experimental: as §1
as §2, with “Mode of inhibition was identified by using mixed model inhibition analysis as follows: (1) Vmax Apparent =Vmax/(1+[I]/(α×Ki)),Km Apparent=Km1+[I]/Ki/(1+[I]/(α×Ki)),Y=Vmax Apparent×x/Km Apparent+x, where V max, K i, and I represent the maximum transport velocity without inhibitor, the inhibition constant generated from the data set under analysis, and the concentration of inhibitor, respectively.” left out, “Otherwise, it indicates noncompetitive inhibition (α = 1) or uncompetitive inhibition (0 < α < 1). To estimate K i values, IC50 values were calculated using nonlinear regression and inserted into the Cheng-Prusoff equation: K i = IC50/(1 + [Substrate]/K m).” left out
Figure 3 Michaelis-Menten kinetics of PAH transport in CHO-mOat1 cells. In order to calculate K i values for mOat1, the K m value for PAH needed to be determined in the CHO-mOat1 cell system. […] The corrected curve (closed circles) was obtained by subtracting the nonspecific background uptake as measured in the CHO-FRT cells from CHO-mOat1 accumulation to allow analysis of mOat1-mediated activity. Experiments were repeated three times in triplicate, and Michaelis constant (K m) values were calculated by nonlinear regression using the Michaelis-Menten model. […] Graph shown is from a representative experiment with values plotted as mean ± S.D. (n = 3).
Figure 2 Inhibition profile of mOat1 and mOat3. […] (b) Inhibition of mOat3-mediated uptake of [^3H]ES (1 μM) by LSA, PCA, RMA, SAA, SAB, TSL, and probenecid (1000 μM) was measured in the CHO-mOat3 cells (10 min). […] Values are mean ± S.D. of triplicate values. ***denotes P < 0.001 as determined by one-way ANOVA followed by Dunnett's t-test.
Figure 4 K i determination for LSA, RMA, and SAA in the CHO-mOat1 cell line. […] (5 μM) in CHO-mOat1 cells was measured in the presence of increasing concentrations (10^−7 to 5 × 10^−4 M) of LSA, RMA, and SAA. Data were corrected for nonspecific background measured in the CHO-FRT cells prior to kinetic analysis. K i values were determined with non-linear regression and the “one-site competition” model using GraphPad Prism software. Graphs shown are from representative experiments with values plotted as mean ± S.D. (n = 3).

mOat3 [4] = target: T1, mOat3; set-up: method as in PMID 19953504, PMID 17553798, PMID 18973812; conditions: read-out: K i for mOat3; cited from earlier work
mOat1 [5] = target: T2, mOat1; set-up: method as in PMID 21546538; conditions: cited from earlier work
mOat3 [6] = target: T1, mOat3; set-up: method as in PMID 21546538; conditions: cited from earlier work
hOAT1 = tested on: hOAT1; set-up: method as in PMID 15870380; conditions: cited from earlier work
mOat3 [7] = target: T1, mOat3; set-up: method as in PMID 18381565; conditions: CHO-mOat3 cells, determined previously; cited from earlier work
[8] = 1 mM (1000 μM) inhibitor, 1 μM [3H]ES, 10 min, CHO-mOat3 cells

## salvianolic acid B [SAB]
mOat3 [1]; [8]
  inhibition of mOat3-mediated ES uptake: approximately 53%
[2]
  increase of AUC on spiking additional SAA into Danshen preparations: 82.4%
  reduction of clearance on spiking additional SAA into Danshen preparations: 46.8%

## O=C(O)c1ccc(O)c(O)c1 [PCA, protocatechuic acid]
mOat1 [3]
  inhibition at 1000 µM: > 95%
mOat3 [1]
  inhibition at 1000 µM: > 91%

## CCCN(CCC)S(=O)(=O)c1ccc(C(=O)O)cc1 [probenecid, reference compound]
mOat3 [1]; [8]
  inhibition at 1000 µM: > 91%
mOat3 [4]
  Ki: 4600 nM

## COc1cccc2c1cc([N+](=O)[O-])c1c(C(=O)O)cc3c(c12)OCO3 [aristolochic acid]
mOat1 [5]
  K m as substrate for mOat1: 0.79 µM
mOat3 [6]
  K m as substrate for mOat3: 0.514 µM

## O=c1oc2c(O)c(O)cc3c(=O)oc4c(O)c(O)cc1c4c23 [ellagic acid]
hOAT1
  IC50: 207 nM

## C[C@]12CC[C@@H]3c4ccc(OS(=O)(=O)O)cc4CC[C@H]3[C@@H]1CCC2=O [ES, estrone sulfate]
mOat3 [7]
  K m of ES on mOat3: 12.2 ± 4.8 µM
